biological target: human APJ receptor (Homo sapiens (Human), UniProt P35414); test: biochemical; format: biochemical; settings: [35S]GTPγS binding, membranes from CHO cells stably expressing human APJ receptor; read-out: Activity hAPJ SPA EC50 IP
Experimental: The human APJ receptor was cloned by polymerase chain reaction and the gene encoding the receptor was subcloned in pFLAG-CMV™-3 expression vector (Sigma, Saint Louis, Mo. USA) in-house at Amgen. A GTPγS binding assay was performed on membranes prepared from CHO cells stably expressing human APJ receptor. The optimum experimental conditions for the concentrations of GDP, MgCl2, and NaCl in the assay buffer were initially determined. The assay was performed in 9 μL assay buffer [20 mM HEPES, pH 7.5, 5 mM MgCl2, 100 mM NaCl and 0.1% (w/v) BSA], 1 μL of diluted test compound (starting with 0.75 mM, 2-fold serial dilution with DMSO, total 22 points), 10 μL of 18 µM GDP (final concentration of 3 μM GDP), 20 μL of […] membrane protein expressing human APJ receptor captured with WGA PS beads (final concentration of 5 μg per well), and 20 μL of 0.3 nM [^35S]GTPγS (final concentration is 0.1 nM [^35S]GTPγS)(Perkin Elmer Life and Analytical Sciences, Waltham USA).

human APJ receptor, sequence (P35414 whole entry): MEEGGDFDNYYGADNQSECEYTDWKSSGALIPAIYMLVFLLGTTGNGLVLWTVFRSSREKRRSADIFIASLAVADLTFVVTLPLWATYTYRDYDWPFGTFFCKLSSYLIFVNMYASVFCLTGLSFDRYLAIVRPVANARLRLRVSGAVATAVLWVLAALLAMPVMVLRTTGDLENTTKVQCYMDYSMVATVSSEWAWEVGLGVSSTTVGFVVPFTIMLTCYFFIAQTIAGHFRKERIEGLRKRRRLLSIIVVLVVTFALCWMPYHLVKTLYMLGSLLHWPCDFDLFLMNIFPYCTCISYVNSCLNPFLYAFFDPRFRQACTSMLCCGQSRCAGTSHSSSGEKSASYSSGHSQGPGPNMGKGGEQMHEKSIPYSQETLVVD

Question: How did the EC50 turn out when `COc1cccc(OC)c1-n1c(C[C@@H]2CCCO2)nnc1NS(=O)(=O)[C@@H](C)[C@H](C)c1ncc(Cl)cn1` (mixture of isomers) [Example 46.0, (2S,3R)-3-(5-chloro-2-pyrimidinyl)-N-(4-(2,6-dimethoxyphenyl)-5-((2R)-tetrahydro-2-furanylmethyl)-4H-1,2,4-triazol-3-yl)-2-butanesulfonamide and (2S,3R)-3-(5-chloro-2-pyrimidinyl)-N-(4-(2,6-dimethoxyphenyl)-5-((2S)-tetrahydro-2-furanylmethyl)-4H-1,2,4-triazol-3-yl)-2-butanesulfonamide] was run?
Answer: 330 nM

Question: With `COc1cccc(OC)c1-n1c(C[C@@H]2CCS(=O)(=O)C2)nnc1NS(=O)(=O)[C@@H](C)[C@H](C)c1ncc(Cl)cn1` (mixture of isomers) [Example 47.0, (2S,3R)-3-(5-chloro-2-pyrimidinyl)-N-(4-(2,6-dimethoxyphenyl)-5-(((3R)-1,1-dioxidotetrahydro-3-thiophenyl)methyl)-4H-1,2,4-triazol-3-yl)-2-butanesulfonamide and (2S,3R)-3-(5-chloro-2-pyrimidinyl)-N-(4-(2,6-dimethoxyphenyl)-5-(((3S)-1,1-dioxidotetrahydro-3-thiophenyl)methyl)-4H-1,2,4-triazol-3-yl)-2-butanesulfonamide] as the compound, how does the EC50 read?
Answer: 70 nM

Question: How did the EC50 turn out when `COc1ncnc(OC)c1-n1c(NS(=O)(=O)[C@@H](C)[C@H](C)c2ncc(Cl)cn2)nnc1[C@@H](C)OC(C)C` (single isomer, unassigned) [Example 2.0, (2S,3R)-3-(5-chloro-2-pyrimidinyl)-N-(4-(4,6-dimethoxy-5-pyrimidinyl)-5-((1R)-1-(1-methylethoxy)ethyl)-4H-1,2,4-triazol-3-yl)-2-butanesulfonamide or (2S,3R)-3-(5-chloro-2-pyrimidinyl)-N-(4-(4,6-dimethoxy-5-pyrimidinyl)-5-((1S)-1-(1-methylethoxy)ethyl)-4H-1,2,4-triazol-3-yl)-2-butanesulfonamide] was run?
Answer: 170 nM

Question: Which EC50 does the source give for `COc1ncnc(OC)c1-n1c(NS(=O)(=O)[C@@H](C)[C@H](C)c2ncc(Cl)cn2)nnc1[C@@H](C)OC(C)C` (single isomer, unassigned) [Example 3.0, (2S,3R)-3-(5-chloro-2-pyrimidinyl)-N-(4-(4,6-dimethoxy-5-pyrimidinyl)-5-((1R)-1-(1-methylethoxy)ethyl)-4H-1,2,4-triazol-3-yl)-2-butanesulfonamide or (2S,3R)-3-(5-chloro-2-pyrimidinyl)-N-(4-(4,6-dimethoxy-5-pyrimidinyl)-5-((1S)-1-(1-methylethoxy)ethyl)-4H-1,2,4-triazol-3-yl)-2-butane sulfonamide] here?
Answer: 320 nM

Question: For `COc1ncnc(OC)c1-n1c(NS(=O)(=O)[C@@H](C)[C@H](C)c2ncc(Cl)cn2)nnc1[C@@H](C)OC` (single isomer, unassigned) [Example 4.0, (2S,3R)-3-(5-chloro-2-pyrimidinyl)-N-(4-(4,6-dimethoxy-5-pyrimidinyl)-5-((1R)-1-methoxyethyl)-4H-1,2,4-triazol-3-yl)-2-butanesulfonamide or (2S,3R)-3-(5-chloro-2-pyrimidinyl)-N-(4-(4,6-dimethoxy-5-pyrimidinyl)-5-((1S)-1-methoxyethyl)-4H-1,2,4-triazol-3-yl)-2-butanesulfonamide], which EC50 is on record?
Answer: 270 nM

Question: How did the EC50 turn out when `COc1ncnc(OC)c1-n1c(NS(=O)(=O)[C@@H](C)[C@H](C)c2ncc(Cl)cn2)nnc1[C@@H](C)OC` (single isomer, unassigned) [Example 5.0, (2S,3R)-3-(5-chloro-2-pyrimidinyl)-N-(4-(4,6-dimethoxy-5-pyrimidinyl)-5-((1R)-1-methoxyethyl)-4H-1,2,4-triazol-3-yl)-2-butanesulfonamide or (2S,3R)-3-(5-chloro-2-pyrimidinyl)-N-(4-(4,6-dimethoxy-5-pyrimidinyl)-5-((1S)-1-methoxyethyl)-4H-1,2,4-triazol-3-yl)-2-butanesulfonamide] was run?
Answer: 310 nM

Question: `CC[C@@H](OC)c1nnc(NS(=O)(=O)[C@@H](C)[C@H](C)c2ncc(Cl)cn2)n1-c1c(OC)ncnc1OC` (single isomer, unassigned) [Example 6.0, (2S,3R)-3-(5-chloro-2-pyrimidinyl)-N-(4-(4,6-dimethoxy-5-pyrimidinyl)-5-((1R)-1-methoxypropyl)-4H-1,2,4-triazol-3-yl)-2-butanesulfonamide or (2S,3R)-3-(5-chloro-2-pyrimidinyl)-N-(4-(4,6-dimethoxy-5-pyrimidinyl)-5-((1S)-1-methoxypropyl)-4H-1,2,4-triazol-3-yl)-2-butanesulfonamide] was tested. Which EC50 did it give?
Answer: 740 nM

Question: With `CC[C@@H](OC)c1nnc(NS(=O)(=O)[C@@H](C)[C@H](C)c2ncc(Cl)cn2)n1-c1c(OC)ncnc1OC` (single isomer, unassigned) [Example 7.0, (2S,3R)-3-(5-chloro-2-pyrimidinyl)-N-(4-(4,6-dimethoxy-5-pyrimidinyl)-5-((1R)-1-methoxypropyl)-4H-1,2,4-triazol-3-yl)-2-butanesulfonamide or (2S,3R)-3-(5-chloro-2-pyrimidinyl)-N-(4-(4,6-dimethoxy-5-pyrimidinyl)-5-((1S)-1-methoxypropyl)-4H-1,2,4-triazol-3-yl)-2-butanesulfonamide] as the compound, how does the EC50 read?
Answer: 360 nM

Question: `COc1ncnc(OC)c1-n1c(CC(C)(C)C)nnc1NS(=O)(=O)[C@@H](C)[C@H](C)c1ncc(Cl)cn1` [Example 1.0, (2S,3R)-3-(5-chloro-2-pyrimidinyl)-N-(4-(4,6-dimethoxy-5-pyrimidinyl)-5-(2,2-dimethylpropyl)-4H-1,2,4-triazol-3-yl)-2-butanesulfonamide] was tested. Which EC50 did it give?
Answer: 240 nM

Question: Which EC50 does the source give for `COCc1nnc(NS(=O)(=O)[C@@H](C)[C@H](C)c2cnc(C)cn2)n1-c1c(OC)cccc1OC` [Example 8.0, (2S,3R)-N-(4-(2,6-dimethoxyphenyl)-5-(methoxymethyl)-4H-1,2,4-triazol-3-yl)-3-(5-methyl-2-pyrazinyl)-2-butanesulfonamide] here?
Answer: 260 nM

Question: With `COCc1nnc(NS(=O)(=O)[C@@H](C)[C@H](C)c2cnc(C)cn2)n1-c1c(OC)ncnc1OC` [Example 9.0, (2S,3R)-N-(4-(4,6-dimethoxy-5-pyrimidinyl)-5-(methoxymethyl)-4H-1,2,4-triazol-3-yl)-3-(5-methyl-2-pyrazinyl)-2-butanesulfonamide] as the compound, how does the EC50 read?
Answer: 630 nM

Question: `COCc1nnc(NS(=O)(=O)[C@@H](C)[C@H](C)c2ncc(Cl)cn2)n1-c1c(OC)ncnc1OC` [Example 11.0, (2S,3R)-3-(5-chloro-2-pyrimidinyl)-N-(4-(4,6-dimethoxy-5-pyrimidinyl)-5-(methoxymethyl)-4H-1,2,4-triazol-3-yl)-2-butanesulfonamide] was tested. Which EC50 did it give?
Answer: 88 nM

Question: For `COc1cccc(OC)c1-n1c(NS(=O)(=O)[C@@H](C)[C@H](C)c2ncc(Cl)cn2)nnc1[C@@H](O)c1ccccc1` [Example 13.0, (2S,3R)-3-(5-chloro-2-pyrimidinyl)-N-(4-(2,6-dimethoxyphenyl)-5-((S)-hydroxy(phenyl)methyl)-4H-1,2,4-triazol-3-yl)-2-butanesulfonamide], which EC50 is on record?
Answer: 110 nM

Question: For `COc1cccc(OC)c1-n1c(Cc2ccccc2)nnc1NS(=O)(=O)[C@@H](C)[C@H](C)c1ncc(Cl)cn1` [Example 14.0, (2S,3R)-N-(5-benzyl-4-(2,6-dimethoxyphenyl)-4H-1,2,4-triazol-3-yl)-3-(5-chloro-2-pyrimidinyl)-2-butanesulfonamide], which EC50 is on record?
Answer: 4.6 nM

Question: How did the EC50 turn out when `COc1cccc(OC)c1-n1c(Cc2cccnc2)nnc1NS(=O)(=O)[C@@H](C)[C@H](C)c1ncc(C)cn1` [Example 15.0, (2S,3R)-N-(4-(2,6-dimethoxyphenyl)-5-(3-pyridinylmethyl)-4H-1,2,4-triazol-3-yl)-3-(5-methyl-2-pyrimidinyl)-2-butanesulfonamide] was run?
Answer: 180 nM

Question: For `COc1cccc(OC)c1-n1c(NS(=O)(=O)[C@@H](C)[C@H](C)c2ncc(C)cn2)nnc1-c1cccc2c1CC(=O)N2` [Example 16.0, (2S,3R)-N-(4-(2,6-dimethoxyphenyl)-5-(2-oxoindolin-4-yl)-4H-1,2,4-triazol-3-yl)-3-(5-methylpyrimidin-2-yl)butane-2-sulfonamide], which EC50 is on record?
Answer: 120 nM

Question: `COc1cccc(OC)c1-n1c(NS(=O)(=O)[C@@H](C)[C@H](C)c2ncc(C)cn2)nnc1-c1cccc2c1CC(=O)N2` [Example 17.0, (2S,3R)-N-(4-(2,6-dimethoxyphenyl)-5-(2-oxoindolin-4-yl)-4H-1,2,4-triazol-3-yl)-3-(5-methylpyrimidin-2-yl)butane-2-sulfonamide] was tested. Which EC50 did it give?
Answer: 350 nM

Question: Which EC50 does the source give for `COc1cccc(OC)c1-n1c(NS(=O)(=O)[C@@H](C)[C@H](C)c2ncc(C)cn2)nnc1[C@H](OC)c1ccccc1` [Example 18.0, (2S,3R)-N-(4-(2,6-dimethoxyphenyl)-5-((R)-methoxy(phenyl)methyl)-4H-1,2,4-triazol-3-yl)-3-(5-methyl-2-pyrimidinyl)-2-butanesulfonamide] here?
Answer: 240 nM

same assay, conditions: read-out: Activity hAPJ SPA EC50 IP

Question: For `COCc1nnc(NS(=O)(=O)[C@@H](C)[C@H](C)c2ncc(Cl)cn2)n1-c1c(OC)cccc1OC` [Example 10.0, (2S,3R)-3-(5-chloro-2-pyrimidinyl)-N-(4-(2,6-dimethoxyphenyl)-5-(methoxymethyl)-4H-1,2,4-triazol-3-yl)-2-butanesulfonamide], which EC50 is on record?
Answer: 15 nM

Question: How did the EC50 turn out when `COCc1nnc(NS(=O)(=O)[C@@H](C)[C@H](OC)c2ncc(Cl)cn2)n1-c1c(OC)cccc1OC` [Example 12.0, (1R,2S)-1-(5-chloro-2-pyrimidinyl)-N-(4-(2,6-dimethoxyphenyl)-5-(methoxymethyl)-4H-1,2,4-triazol-3-yl)-1-methoxy-2-propanesulfonamide] was run?
Answer: 4.8 nM

Source: US11191762B2, “Alkyl substituted triazole compounds as agonists of the APJ Receptor” (priority 2016, dated 2021)
